According to ChEMBL document CHEMBL4138174, “Design and synthesis of novel C14-urea-tetrandrine derivatives with potent anti-cancer activity” (Eur J Med Chem, 2018):
Active and inactive are the calls of the source. The calls are words filed in the database; no cut-off is given here.

Assays:
PC-3 [1] = assay: Induction of apoptosis in human PC3 cells assessed as early apoptotic cells at 2 uM after 24 hrs by Annexin V-FITC/propidium iodide double staining based flow cytometry (reference value: 0.8%); type: functional
PC-3 [2] = assay: Induction of apoptosis in human PC3 cells assessed as viable cells at 1 uM after 24 hrs by Annexin V-FITC/propidium iodide double staining based flow cytometry (reference value: 97.9%); type: functional; details: PC-3, 24 h, read-out: Activity
PC-3 [3] = assay: Induction of apoptosis in human PC3 cells assessed as viable cells at 0.5 uM after 24 hrs by Annexin V-FITC/propidium iodide double staining based flow cytometry (reference value: 97.9%); type: functional; details: PC-3, 24 h, read-out: Activity
MDA-MB-231 = assay: Cytotoxicity against human MDA-MB-231 cells assessed as reduction in cell viability after 48 hrs by MTT assay; type: functional, cell-based; details: Homo sapiens, MDA-MB-231, 48 h
PC-3 [4] = assay: Induction of apoptosis in human PC3 cells assessed as late apoptotic cells at 0.5 uM after 24 hrs by Annexin V-FITC/propidium iodide double staining based flow cytometry (reference value: 0.4%); type: functional
[5] = Cytotoxicity against human WM9 cells assessed as reduction in cell viability after 48 hrs by MTT assay; type: functional, cell-based; details: Homo sapiens, WM9, 48 h
PC-3 [6] = assay: Induction of apoptosis in human PC3 cells assessed as late apoptotic cells at 1 uM after 24 hrs by Annexin V-FITC/propidium iodide double staining based flow cytometry (reference value: 0.4%); type: functional
PC-3 [7] = assay: Induction of apoptosis in human PC3 cells assessed as late apoptotic cells at 3 uM after 24 hrs by Annexin V-FITC/propidium iodide double staining based flow cytometry (reference value: 0.4%); type: functional
PC-3 [8] = assay: Induction of apoptosis in human PC3 cells assessed as early apoptotic cells at 3 uM after 24 hrs by Annexin V-FITC/propidium iodide double staining based flow cytometry (reference value: 0.8%); type: functional
PC-3 [9] = assay: Potency index, ratio of 5-fluorouracil IC50 to compound IC50 for human PC3 cells; type: functional
PC-3 [10] = assay: Potency index, ratio of cisplatin IC50 to compound IC50 for human PC3 cells; type: functional
K562 = assay: Cytotoxicity against human K562 cells assessed as reduction in cell viability after 48 hrs by MTT assay; type: functional, cell-based; details: Homo sapiens, K562, 48 h
PC-3 [11] = assay: Induction of apoptosis in human PC3 cells assessed as viable cells at 2 uM after 24 hrs by Annexin V-FITC/propidium iodide double staining based flow cytometry (reference value: 97.9%); type: functional; details: PC-3, 24 h, read-out: Activity
PC-3 [12] = assay: Induction of apoptosis in human PC3 cells assessed as viable cells at 3 uM after 24 hrs by Annexin V-FITC/propidium iodide double staining based flow cytometry (reference value: 97.9%); type: functional; details: PC-3, 24 h, read-out: Activity
PC-3 [13] = assay: Induction of apoptosis in human PC3 cells assessed as necrotic cells at 3 uM after 24 hrs by Annexin V-FITC/propidium iodide double staining based flow cytometry (reference value: 0.9%); type: functional
PC-3 [14] = assay: Cytotoxicity against human PC3 cells assessed as reduction in cell viability after 48 hrs by MTT assay; type: functional, cell-based
PC-3 [15] = assay: Induction of apoptosis in human PC3 cells assessed as early apoptotic cells at 1 uM after 24 hrs by Annexin V-FITC/propidium iodide double staining based flow cytometry (reference value: 0.8%); type: functional
PC-3 [16] = assay: Induction of apoptosis in human PC3 cells assessed as necrotic cells at 0.5 uM after 24 hrs by Annexin V-FITC/propidium iodide double staining based flow cytometry (reference value: 0.9%); type: functional
PC-3 [17] = assay: Induction of apoptosis in human PC3 cells assessed as late apoptotic cells at 2 uM after 24 hrs by Annexin V-FITC/propidium iodide double staining based flow cytometry (reference value: 0.4%); type: functional
PC-3 [18] = assay: Induction of apoptosis in human PC3 cells assessed as necrotic cells at 1 uM after 24 hrs by Annexin V-FITC/propidium iodide double staining based flow cytometry (reference value: 0.9%); type: functional
HEL = assay: Cytotoxicity against human HEL cells assessed as reduction in cell viability after 48 hrs by MTT assay; type: functional, cell-based; details: Homo sapiens, HEL, 48 h
PC-3 [19] = assay: Induction of apoptosis in human PC3 cells assessed as early apoptotic cells at 0.5 uM after 24 hrs by Annexin V-FITC/propidium iodide double staining based flow cytometry (reference value: 0.8%); type: functional
PC-3 [20] = assay: Induction of apoptosis in human PC3 cells assessed as necrotic cells at 2 uM after 24 hrs by Annexin V-FITC/propidium iodide double staining based flow cytometry (reference value: 0.9%); type: functional
PC-3 [21] = assay: Induction of apoptosis in human PC3 cells assessed as increase in cleaved PARP levels at 2.5 uM after 24 hrs by Western blot analysis; type: functional, cell-based
PC-3 [22] = assay: Induction of apoptosis in human PC3 cells assessed as decrease in cell membrane smoothness at 2.5 uM after 24 hrs by inverted microscopic analysis; type: functional, cell-based
PC-3 [23] = assay: Induction of apoptosis in human PC3 cells assessed as increase in cleaved caspase 3 levels at 2.5 uM after 24 hrs by Western blot analysis; type: functional, cell-based
PC-3 [24] = assay: Induction of apoptosis in human PC3 cells assessed as increase in cleaved caspase 9 levels at 2.5 uM after 24 hrs by Western blot analysis; type: functional, cell-based
PC-3 [25] = assay: Induction of apoptosis in human PC3 cells assessed as chromatin condensation at 2.5 uM after 24 hrs by Hoechst 33258-based inverted fluorescence microscopy; type: functional, cell-based
PC-3 [26] = assay: Induction of apoptosis in human PC3 cells assessed as shrunken nucleus at 2.5 uM after 24 hrs by inverted microscopic analysis; type: functional, cell-based
PC-3 [27] = assay: Induction of apoptosis in human PC3 cells assessed as formation of apoptotic bodies at 2.5 uM after 24 hrs by 33258-based inverted fluorescence microscopy; type: functional, cell-based
PC-3 [28] = assay: Induction of apoptosis in human PC3 cells assessed as increase in survivin levels at 2.5 uM after 24 hrs by Western blot analysis; type: functional, cell-based
PC-3 [29] = assay: Induction of apoptosis in human PC3 cells after 24 hrs by Annexin V-FITC/propidium iodide double staining based flow cytometry; type: functional, cell-based
PC-3 [30] = assay: Induction of apoptosis in human PC3 cells assessed as reduction in full length PARP protein levels at 2.5 uM after 24 hrs by Western blot analysis; type: functional, cell-based
PC-3 [31] = assay: Induction of apoptosis in human PC3 cells assessed as activation of BAX at 2.5 uM after 24 hrs by Western blot analysis; type: functional, cell-based
PC-3 [32] = assay: Induction of apoptosis in human PC3 cells assessed as reduction in inactive pro-caspase-9 levels at 2.5 uM after 24 hrs by Western blot analysis; type: functional, cell-based
PC-3 [33] = assay: Induction of apoptosis in human PC3 cells assessed as suppression of bcl2 at 2.5 uM after 24 hrs by Western blot analysis; type: functional, cell-based
PC-3 [34] = assay: Induction of apoptosis in human PC3 cells assessed as cell shrinkage at 2.5 uM after 24 hrs by Hoechst 33258 staining based inverted microscopic analysis; type: functional

Compound | IC50 (MDA-MB-231) [µM] | IC50 [5] [µM] | IC50 (K562) [µM] | IC50 (PC-3 [14]; Homo sapiens, PC-3, 48 h) [µM] | IC50 (HEL) [µM] | other results
COc1cc(NC(=S)Nc2ccc(F)cc2)c2cc1Oc1ccc(cc1)C[C@H]1c3cc(c(OC)cc3CCN1C)Oc1c(OC)c(OC)cc3c1[C@H](C2)N(C)CC3 [listing 1 of 2 here] | 2.03 | 2.6 | 1.56 | 0.64 | 2.55 | Activity (PC-3 [1]): 13.6%; viability at 1 µM (PC-3 [2]): 87.7%; viability at 0.5 µM (PC-3 [3]): 93.3%; Activity (PC-3 [4]): 0.9%; Activity (PC-3 [6]): 0.7%; Activity (PC-3 [7]): 2.1%; Activity (PC-3 [8]): 34.4%; Ratio IC50 (PC-3 [9]): 31; Ratio IC50 (PC-3 [10]): 26; viability at 2 µM (PC-3 [11]): 83.3%; viability at 3 µM (PC-3 [12]): 63.3%; Activity (PC-3 [13]): 0.1%; Activity (PC-3 [15]): 11.63%; Activity (PC-3 [16]): 0.5%; Activity (PC-3 [17]): 2.8%; Activity (PC-3 [18]): 0.3%; Activity (PC-3 [19]): 5.3%; Activity (PC-3 [20]): 0.4%
COc1cc(NC(=O)NC2CCCCC2)c2cc1Oc1ccc(cc1)C[C@H]1c3cc(c(OC)cc3CCN1C)Oc1c(OC)c(OC)cc3c1[C@H](C2)N(C)CC3 | 16.6 | 10.4 | 5.56 | 3.78 | 14.8 | 
C=C(C)C(=O)OCCNC(=O)Nc1cc(OC)c2cc1C[C@H]1c3c(cc(OC)c(OC)c3Oc3cc4c(cc3OC)CCN(C)[C@H]4Cc3ccc(cc3)O2)CCN1C | 15.8 | 1.83 | 8.01 | 7.82 | 12.3 | 
O=c1[nH]cc(F)c(=O)[nH]1 [FLUOROURACIL] | 17.7 | 15.8 | 9.49 | 19.9 | 16 | 
COc1cc(NC(=O)Nc2ccc(OC(F)(F)F)cc2)c2cc1Oc1ccc(cc1)C[C@H]1c3cc(c(OC)cc3CCN1C)Oc1c(OC)c(OC)cc3c1[C@H](C2)N(C)CC3 | 4.95 | 3.91 | 1.25 | 0.74 | 4.02 | 
COc1ccc2cc1Oc1ccc(cc1)C[C@H]1c3cc(c(OC)cc3CCN1C)Oc1c(OC)c(OC)cc3c1[C@H](C2)N(C)CC3 [FANCHININ] | 22 | 11 | 13.8 | 7.87 | 16.8 | 
COc1cc(NC(=S)Nc2ccc(F)cc2)c2cc1Oc1ccc(cc1)C[C@H]1c3cc(c(OC)cc3CCN1C)Oc1c(OC)c(OC)cc3c1[C@H](C2)N(C)CC3 [listing 2 of 2 here] |  |  |  |  |  | Activity (PC-3 [21]): Active; Activity (PC-3 [22]): Active; Activity (PC-3 [23]): Active; Activity (PC-3 [24]): Active; Activity (PC-3 [25]): Active; Activity (PC-3 [26]): Active; Activity (PC-3 [27]): Active; Activity (PC-3 [28]): Active; Activity (PC-3 [29]): Dose-dependent effect; Activity (PC-3 [30]): Active; Activity (PC-3 [31]): Active; Activity (PC-3 [32]): Active; Activity (PC-3 [33]): Active; Activity (PC-3 [34]): Active
COc1cc(NC(=O)Nc2cccc3ccccc23)c2cc1Oc1ccc(cc1)C[C@H]1c3cc(c(OC)cc3CCN1C)Oc1c(OC)c(OC)cc3c1[C@H](C2)N(C)CC3 | 4.61 | 3.93 | 1.97 | 1.31 | 5.21 | 
COc1cc(NC(=O)NCc2ccccc2)c2cc1Oc1ccc(cc1)C[C@H]1c3cc(c(OC)cc3CCN1C)Oc1c(OC)c(OC)cc3c1[C@H](C2)N(C)CC3 | 6.99 | 6.14 | 4.59 | 5.73 | 8.02 | 
COc1cc(NC(=O)NCCc2ccccc2)c2cc1Oc1ccc(cc1)C[C@H]1c3cc(c(OC)cc3CCN1C)Oc1c(OC)c(OC)cc3c1[C@H](C2)N(C)CC3 | 9.76 | 7.68 | 4.94 | 5.9 | 8.93 | 
COc1cc(NC(=O)NCCCl)c2cc1Oc1ccc(cc1)C[C@H]1c3cc(c(OC)cc3CCN1C)Oc1c(OC)c(OC)cc3c1[C@H](C2)N(C)CC3 | 13.3 | 4.18 | 6.24 | 4.91 | 9.34 | 
CCCCNC(=S)Nc1cc(OC)c2cc1C[C@H]1c3c(cc(OC)c(OC)c3Oc3cc4c(cc3OC)CCN(C)[C@H]4Cc3ccc(cc3)O2)CCN1C | 5.66 | 4.27 | 2.39 |  | 3.68 | IC50 (PC-3 [14]; pc-3): 3.03 µM
COc1cc(NC(=O)Nc2ccc(C)cc2)c2cc1Oc1ccc(cc1)C[C@H]1c3cc(c(OC)cc3CCN1C)Oc1c(OC)c(OC)cc3c1[C@H](C2)N(C)CC3 | 7.28 | 5.13 | 2.89 | 3.85 | 8.08 | 
